Values quoted from earlier work as cited in paper PMC9387934, “Randomized single oral dose phase 1 study of safety, tolerability, and pharmacokinetics of Iminosugar UV-4 Hydrochloride (UV-4B) in healthy subjects” (PLoS Neglected Tropical Diseases, 2022).

Columns and labels:
[1] = doses of 100 mg TID or less; cited from earlier work
[2] = set-up: method as in FDA Advisory Briefing Book for Miglustat; details: humans, doses of up to 1000 mg TID; ref FDA Advisory Briefing Book for Miglustat; cited from earlier work
[3] = dogs, 105 mg/kg/day given over 4 weeks; cited from earlier work
[4] = set-up: method as in Zavesca SmPC; details: ref Zavesca SmPC; cited from earlier work
[5] = healthy male subjects; cited from earlier work
[6] = 212 obese patients treated for 36 months; cited from earlier work
[7] = 1108 patients, average of 6 months; cited from earlier work
[8] = 300 mg BID; grade 3 transaminase, CK, and LDH elevations; cited from earlier work

CCCCN1C[C@H](O)[C@@H](O)[C@H](O)[C@H]1CO [miglustat, N-butyl-Deoxynojirimycin]
Association with AST and ALT elevations [1]: does not appear to be associated
Histamine-like findings as seen in rats [2]: no similar findings
Neurologic findings [3]: tremor and reduction or absence of corneal reflexes
NOAEL [4]: 20 mg/kg
AST elevations [5]: no AST elevations

C[C@H]1O[C@H](O[C@H]2[C@H](O)[C@@H](O)[C@@H](O[C@H]3[C@H](O)[C@@H](O)C(O)O[C@@H]3CO)O[C@@H]2CO)[C@H](O)[C@@H](O)[C@@H]1N[C@H]1C=C(CO)[C@@H](O)[C@H](O)[C@H]1O (some centres unmarked) [acarbose]
ALT elevations, share of patients [6]: 9%
Rates of ALT elevations versus placebo [7]: no different

CCCC(=O)O[C@H]1CN2CC[C@H](O)[C@@H]2[C@@H](O)[C@@H]1O [Celgosivir]
Outcome of safety and tolerability study [8]: prematurely discontinued
